Test results published in patent US20060106026A1, “4-(4-methylpiperazin-1-ylmethyl)-n-[4-pyridin-3-yl)pyrimidin-2-ylamino)phenyl]-benzamide for treating anaplastic thyroid cancer” (priority 2002, published 2006).

How the values were obtained:
[1] = test system: ERK1/2
Protocol: Abl was immunoprecipitated from cell lysates using the indicated antibody. In vitro kinase assay was performed as described previously (Dorey et al., Oncogene, 2000, […]:8075-84). Radiolabelled GST-Crk was quantified using a PhosphorImager (Molecular Dynamics, Inc., Sunnyvale, Calif., USA). […] Stimulation was with 20% FCS for 8 minutes, cell lysates were collected and subjected to SDS-PAGE and Western blotting carried out using antibodies against ERK1/2 and the phosphorylated form of ERK1/2. […] A common response to extracellular signals such as growth factors is the activation of the mitogen-activated protein (MAP) kinase cascade.

[2] = test system: FRO; test: Cell growth assay, experiment 1 (cell count kit 48 h; growth curve 5 days); settings: for cell number quantified with a cell count kit (Wako), mean: 48 hour-treatment, no SALT I: 1.677
[3] = test system: KTC-1; test: as above; settings: for cell number quantified with a cell count kit (Wako), mean: 48 hour-treatment, no SALT I: 0.413

CS(=O)(=O)O.Cc1ccc(NC(=O)c2ccc(CN3CCN(C)CC3)cc2)cc1Nc1nccc(-c2cccnc2)n1 [SALT I]
phosphorylation of ERK1/2 in response to serum stimulation [1]: had no effect on its phosphorylation
level of p-ERK1/2 ([1]; ARO and FRO, 10 μM SALT I for two hours, 20% FCS for 8 minutes): did not affect
growth suppression, dose dependence ([2]; FRO (undetectable p53), lower than 50 μM, 48 h): show growth suppression in SALT I dose dependent manner
cell growth curve on a 5 day period ([2]; FRO, 10 μM of SALT I, compared to control cells): time-dependent reduction of cell growth
cell death ([2]; FRO, 50 μM of SALT I, 48 h): died
cell number quantified with a cell count kit (Wako), mean ([2]; FRO, SALT I 1 μM): 1.414
cell number quantified with a cell count kit (Wako), mean ([2]; FRO, SALT I 10 μM): 1.192
cell number quantified with a cell count kit (Wako), mean ([2]; FRO, SALT I 50 μM): 0.228
growth suppression, dose dependence ([3]; KTC-1 (wild type p53), lower than 50 μM, 48 h): do not
cell growth curve on a 5 day period ([3]; KTC-1, 10 μM of SALT I (data not shown)): do not change the cell growth
cell death ([3]; KTC-1, 50 μM of SALT I, 48 h): died
cell number quantified with a cell count kit (Wako), mean ([3]; KTC-1, SALT I 1 μM): 0.403
cell number quantified with a cell count kit (Wako), mean ([3]; KTC-1, SALT I 10 μM): 0.379
cell number quantified with a cell count kit (Wako), mean ([3]; KTC-1, SALT I 50 μM): 0.064
